Where a name gives a salt, the structure may show the parent alone. Read-outs that look alike come from different tables or passages of the source.

Common to all, as to format: biochemical
The target in one assay is T1, recombinant PRL-3 (Homo sapiens, UniProt O75365).
T1 construct: 6xHis (N, cleaved yes); made in house; host or cells: E. coli One Shot BL21 Star
In words: In vitro phosphatase assay (DiFMUP hydrolysis), PRL-3. Note: test concentration or dose not given here.

The next assay has as its target T2, recombinant PRL-2 (Homo sapiens, UniProt Q12974).
T2 construct: 6xHis (N, cleaved yes); made in house; host or cells: E. coli One Shot BL21 Star
T2 sequence (Q12974 1-167): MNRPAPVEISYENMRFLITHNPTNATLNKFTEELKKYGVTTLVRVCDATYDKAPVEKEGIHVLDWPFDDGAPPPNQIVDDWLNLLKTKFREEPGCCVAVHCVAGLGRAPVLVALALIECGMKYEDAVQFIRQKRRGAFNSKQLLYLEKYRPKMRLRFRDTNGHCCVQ
Description: In vitro phosphatase assay (DiFMUP hydrolysis), PRL-2.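 Note: PRL-2 activity read as DiFMUP hydrolysis after 20 min at room temperature with drug, enzyme first pre-reduced at 4 °C for 20 min.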

Another assay deals with T3, recombinant PRL-1 (Homo sapiens, UniProt Q93096).
T3 construct: 6xHis (N, cleaved yes); made in house; host or cells: E. coli One Shot BL21 Star
T3 sequence (Q93096 1-173): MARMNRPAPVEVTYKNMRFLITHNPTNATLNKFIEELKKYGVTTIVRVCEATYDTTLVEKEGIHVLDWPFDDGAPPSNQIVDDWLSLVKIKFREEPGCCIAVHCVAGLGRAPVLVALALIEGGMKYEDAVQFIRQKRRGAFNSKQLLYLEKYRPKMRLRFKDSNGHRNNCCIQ
In words: In vitro phosphatase assay (DiFMUP hydrolysis), PRL-1. Note: test concentration or dose not given here.

Setting [1] is: FDA-approved drug screen, compared to DMSO.

T1 sequence (O75365 whole entry): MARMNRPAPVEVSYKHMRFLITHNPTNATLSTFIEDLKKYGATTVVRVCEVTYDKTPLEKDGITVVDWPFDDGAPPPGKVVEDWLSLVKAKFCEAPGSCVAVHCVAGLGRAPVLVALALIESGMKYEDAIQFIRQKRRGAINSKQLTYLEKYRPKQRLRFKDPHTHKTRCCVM
Description for recombinant PRL-1: Briefly, protein was diluted in reaction buffer and allowed to incubate at 4 °C for 20 min to allow for full reduction of the active site. DiFMUP, drug, and protein were added, and plates were incubated for 20 min at room temperature. Fluorescence intensities were measured on a Cytation 5 plate reader (Biotek) at an EX:360 nm and EM:460 nm. […] Inhibition selectivity for PRLs over a panel of other phosphatases was determined using PhosphataseProfiler (Eurofins, Cat # PP260).

Take `COCCCN1CCC(NC(=O)c2cc(Cl)c(N)c3c2OCC3)CC1.O=C(O)CCC(=O)O` [Prucalopride Succinat]: the “% Phosphatase Activity (compared to DMSO) PRL-3” value at recombinant PRL-3 (setting [1]) is 85%. Moreover, on recombinant PRL-2 (setting [1]), the “% Phosphatase Activity (compared to DMSO) PRL-2” value is 77%. In addition, on recombinant PRL-1 (setting [1]), the “% Phosphatase Activity (compared to DMSO) PRL-1” value was 76%.
The matching figures for `COCCCN1CCC(NC(=O)c2cc(Cl)c(N)c3c2OCC3)CC1` [Prucalopride]: 85%, 113% and 97%.
For `COc1ccc(C[C@H](N)C(=O)N[C@H]2[C@@H](O)[C@H](n3cnc4c(N(C)C)ncnc43)O[C@@H]2CO)cc1.Cl.Cl` [Puromycin 2HCl], in that order: 113%, 101% and 106%.
For `NC(=O)c1cnccn1` [Pyrazinamide], in that order: 95%, 93% and 85%.
As to `CN(C)C(=O)Oc1ccc[n+](C)c1` [Pyridostigmine Bromide], at recombinant PRL-3 (setting [1]), the “% Phosphatase Activity (compared to DMSO) PRL-3” value is reported as 77%. For the same molecule, the “% Phosphatase Activity (compared to DMSO) PRL-2” value on recombinant PRL-2 (setting [1]) came to 109%. Besides, the “% Phosphatase Activity (compared to DMSO) PRL-1” value on recombinant PRL-1 (setting [1]) is 106%.
With `Cc1ncc(CO)c(CO)c1O` [Pyridoxine HCl], the “% Phosphatase Activity (compared to DMSO) PRL-3” value on recombinant PRL-3 (setting [1]) came to 91%. Besides, the “% Phosphatase Activity (compared to DMSO) PRL-2” value on recombinant PRL-2 (setting [1]) is listed as 102%. Moreover, at recombinant PRL-1 (setting [1]), the “% Phosphatase Activity (compared to DMSO) PRL-1” value is listed as 100%.
For `COc1ccc(CN(CCN(C)C)c2ccccn2)cc1` [Pyrilamine Maleate], in that order: 98%, 111% and 94%.
In the case of `OCCOCCN1CCN(C2=Nc3ccccc3Sc3ccccc32)CC1` [Quetiapine Fumarate], the “% Phosphatase Activity (compared to DMSO) PRL-3” value on recombinant PRL-3 is listed as 93%. Also, the “% Phosphatase Activity (compared to DMSO) PRL-2” value at recombinant PRL-2 was found to be 87%. Moreover, the “% Phosphatase Activity (compared to DMSO) PRL-1” value on recombinant PRL-1 stood at 80%.
Regarding `CCOC(=O)[C@H](CCc1ccccc1)N[C@@H](C)C(=O)N1Cc2ccccc2C[C@H]1C(=O)O` [Quinapril HCl], the “% Phosphatase Activity (compared to DMSO) PRL-3” value at recombinant PRL-3 (setting [1]) worked out at 80%. Besides, the “% Phosphatase Activity (compared to DMSO) PRL-2” value at recombinant PRL-2 (setting [1]) was 106%. Also, on recombinant PRL-1 (setting [1]), the “% Phosphatase Activity (compared to DMSO) PRL-1” value stood at 92%.
The matching figures for `Cn1cc(CNCC2CCN(c3ncc(C(=O)NO)cn3)CC2)c2ccccc21` [Quisinostat (JNJ-26481585)]: 92%, 109% and 121%.
For `CC(C)(C)c1cc(NC(=O)Nc2ccc(-c3cn4c(n3)sc3cc(OCCN5CCOCC5)ccc34)cc2)no1` [Quizartinib (AC220)], in that order: 97%, 114% and 112%.
The matching figures for `COc1cc(Nc2ncc(F)c(Nc3ccc4c(n3)N(COP(=O)([O-])[O-])C(=O)C(C)(C)O4)n2)cc(OC)c1OC.[Na+].[Na+]` [R788 (Fostamatinib) Disodium]: 88%, 119% and 90%.
For `CC(=O)SCC(Cc1ccccc1)C(=O)NCC(=O)OCc1ccccc1` (stereo not drawn) [Racecadotril], the “% Phosphatase Activity (compared to DMSO) PRL-3” value on recombinant PRL-3 (setting [1]) is 76%. Besides, the “% Phosphatase Activity (compared to DMSO) PRL-2” value on recombinant PRL-2 (setting [1]) is given as 99%. In addition, the “% Phosphatase Activity (compared to DMSO) PRL-1” value on recombinant PRL-1 (setting [1]) came to 95%.
The matching figures for `Cc1cn(-c2cc(NC(=O)c3ccc(C)c(Nc4nccc(-c5cnccn5)n4)c3)cc(C(F)(F)F)c2)cn1` [Radotinib]: 89%, 83% and 96%.
For `O=C(c1ccc(OCCN2CCCCC2)cc1)c1c(-c2ccc(O)cc2)sc2cc(O)ccc12` [Raloxifene HCl], in that order: 74%, 96% and 95%.
The matching figures for `Cc1nnc(C(=O)NC(C)(C)c2nc(C(=O)NCc3ccc(F)cc3)c(O)c(=O)n2C)o1` [Raltegravir (MK-0518)]: 90%, 105% and 96%.
In the case of `Cc1nc2ccc(CN(C)c3ccc(C(=O)N[C@@H](CCC(=O)O)C(=O)O)s3)cc2c(=O)[nH]1` [Raltitrexed], on recombinant PRL-3 (setting [1]), the “% Phosphatase Activity (compared to DMSO) PRL-3” value is 71%. Also, the “% Phosphatase Activity (compared to DMSO) PRL-2” value at recombinant PRL-2 (setting [1]) is given as 71%. The “% Phosphatase Activity (compared to DMSO) PRL-1” value on recombinant PRL-1 (setting [1]) is listed as 80%.
For `CCC(=O)NCC[C@@H]1CCc2ccc3c(c21)CCO3` [Ramelteon], the “% Phosphatase Activity (compared to DMSO) PRL-3” value on recombinant PRL-3 (setting [1]) is reported as 73%. Moreover, the “% Phosphatase Activity (compared to DMSO) PRL-2” value on recombinant PRL-2 (setting [1]) is reported as 96%. Besides, at recombinant PRL-1 (setting [1]), the “% Phosphatase Activity (compared to DMSO) PRL-1” value was 91%.
For `CCOC(=O)[C@H](CCc1ccccc1)N[C@@H](C)C(=O)N1[C@H](C(=O)O)C[C@@H]2CCC[C@@H]21` [Ramipril], in that order: 93%, 86% and 84%.
The matching figures for `CNC(=C[N+](=O)[O-])NCCSCc1ccc(CN(C)C)o1` [Ranitidine]: 103%, 102% and 93%.
For `COc1ccccc1OCC(O)CN1CCN(CC(=O)Nc2c(C)cccc2C)CC1.Cl.Cl` (stereo not drawn) [Ranolazine 2HCl], in that order: 97%, 99% and 107%.
Regarding `COc1ccccc1OCC(O)CN1CCN(CC(=O)Nc2c(C)cccc2C)CC1` (stereo not drawn) [Ranolazine], the “% Phosphatase Activity (compared to DMSO) PRL-3” value at recombinant PRL-3 (setting [1]) is 118%. Moreover, the “% Phosphatase Activity (compared to DMSO) PRL-2” value on recombinant PRL-2 (setting [1]) amounted to 99%. Besides, the “% Phosphatase Activity (compared to DMSO) PRL-1” value on recombinant PRL-1 (setting [1]) worked out at 90%.
`CO[C@H]1C[C@@H]2CC[C@@H](C)[C@@](O)(O2)C(=O)C(=O)N2CCCC[C@H]2C(=O)O[C@H]([C@H](C)C[C@@H]2CC[C@@H](O)[C@H](OC)C2)CC(=O)[C@H](C)/C=C(\C)[C@@H](O)[C@@H](OC)C(=O)[C@H](C)C[C@H](C)/C=C/C=C/C=C/1C` [Rapamycin (Sirolimus)]: the “% Phosphatase Activity (compared to DMSO) PRL-3” value on recombinant PRL-3 (setting [1]) is given as 75%. Besides, the “% Phosphatase Activity (compared to DMSO) PRL-2” value on recombinant PRL-2 (setting [1]) is 89%. Moreover, the “% Phosphatase Activity (compared to DMSO) PRL-1” value on recombinant PRL-1 (setting [1]) was 88%.
As to `C#CCN[C@@H]1CCc2ccccc21` [Rasagiline Mesylate], the “% Phosphatase Activity (compared to DMSO) PRL-3” value on recombinant PRL-3 amounted to 99%. At recombinant PRL-2, the “% Phosphatase Activity (compared to DMSO) PRL-2” value stood at 130%. Also, the “% Phosphatase Activity (compared to DMSO) PRL-1” value on recombinant PRL-1 turned out to be 116%.
Regarding `O=C(NC(Cc1cc(=O)[nH]c2ccccc12)C(=O)O)c1ccc(Cl)cc1` (stereo not drawn) [Rebamipide], the “% Phosphatase Activity (compared to DMSO) PRL-3” value on recombinant PRL-3 (setting [1]) came out at 92%. The “% Phosphatase Activity (compared to DMSO) PRL-2” value on recombinant PRL-2 (setting [1]) came out at 93%. Moreover, the “% Phosphatase Activity (compared to DMSO) PRL-1” value on recombinant PRL-1 (setting [1]) is listed as 88%.
For `COCCCOc1ccnc(C[S+]([O-])c2nc3ccccc3[n-]2)c1C.[Na+]` (stereo not drawn) [Rebeprazole sodium], in that order: 78%, 99% and 97%.
For `CCOc1ccccc1OC(c1ccccc1)C1CNCCO1.CS(=O)(=O)O` (stereo not drawn) [Reboxetine mesylate], in that order: 99%, 118% and 125%.
For `CNC(=O)c1cc(Oc2ccc(NC(=O)Nc3ccc(Cl)c(C(F)(F)F)c3)c(F)c2)ccn1` [Regorafenib (BAY 73-4506)], the “% Phosphatase Activity (compared to DMSO) PRL-3” value on recombinant PRL-3 (setting [1]) was 79%. Moreover, the “% Phosphatase Activity (compared to DMSO) PRL-2” value on recombinant PRL-2 (setting [1]) came to 88%. Moreover, the “% Phosphatase Activity (compared to DMSO) PRL-1” value on recombinant PRL-1 (setting [1]) stood at 86%.
For the molecule `CCOc1cc(CC(=O)N[C@@H](CC(C)C)c2ccccc2N2CCCCC2)ccc1C(=O)O` [Repaglinide], the “% Phosphatase Activity (compared to DMSO) PRL-3” value at recombinant PRL-3 (setting [1]) is recorded as 87%. Besides, the “% Phosphatase Activity (compared to DMSO) PRL-2” value on recombinant PRL-2 (setting [1]) is reported as 81%. Further, on recombinant PRL-1 (setting [1]), the “% Phosphatase Activity (compared to DMSO) PRL-1” value was found to be 96%.
For `COC(=O)[C@H]1[C@H]2C[C@@H]3c4[nH]c5cc(OC)ccc5c4CCN3C[C@H]2C[C@@H](OC(=O)c2cc(OC)c(OC)c(OC)c2)[C@@H]1OC` [Reserpine], in that order: 92%, 105% and 110%.
Turning to `CN(C)Cc1ccc(S(=O)(=O)n2ccc(/C=C/C(=O)NO)c2)cc1` [Resminostat], the “% Phosphatase Activity (compared to DMSO) PRL-3” value on recombinant PRL-3 (setting [1]) was 90%. For the same molecule, the “% Phosphatase Activity (compared to DMSO) PRL-2” value on recombinant PRL-2 (setting [1]) came to 113%. Besides, on recombinant PRL-1 (setting [1]), the “% Phosphatase Activity (compared to DMSO) PRL-1” value is listed as 102%.
The matching figures for `Oc1cccc(O)c1` [Resorcinol]: 77%, 88% and 100%.
The matching figures for `Oc1ccc(/C=C/c2cc(O)cc(O)c2)cc1` [Resveratrol]: 84%, 112% and 107%.
